Experimental data reported in US20130337564A1, “Treatment of Pluripotent Cells” (Janssen Biotech, Inc., priority 2012, published 2013).
Where “and” joins values, the source holds several entries; their conditions need not be identical. Identical values can stand only once.

Tests used:
Format in all cases: cell-based
[1] = test system: HNF-3beta expression in human embryonic stem cells (H9 line); assay: High content screening assay: HNF-3beta protein expression (differentiation); conditions: for fold induction at 10 µM: Homo sapiens, Embryonic stem cell, 10 μM test compound with 100 ng/ml activin A on days 1-2, H9, total intensity by IN Cell Analyzer, strong and moderate hits, read-out: HNF3β Expression, Fold over Wnt 3a/AA control
Outline: (§1)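 H9 hESCs on MATRIGEL treated days 1-2 with 10 μM compound in DMEM:F12, 0.5% FCS, 100 ng/ml activin A; days 3-4 with 2% FCS plus activin A without compound. Fixed cells immunostained for Sox17 or HNF-3beta with Draq5 nuclear counterstain. Cell number and staining intensity quantified by high-content imaging, 12 fields/well.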

[2] = test system: cells expressing pluripotency markers derived from human embryonic stem cells; assay: MTS viability (toxicity) assay of cells expressing pluripotency markers; design: Raw data (duplicate), first replicate / Average: unit not given here; conditions: for viability at 10 µM: Homo sapiens, Embryonic stem cell; for viability at 10 µM / % Control: viability of cells expressing pluripotency markers, relative to control; for Raw data (duplicate), first replicate / Raw data (duplicate), second replicate: MTS viability assay raw reading; for Raw data (duplicate), first replicate: replicate 1; for Raw data (duplicate), second replicate: replicate 2; for Average: average of duplicate MTS raw readings; for Average of raw data (duplicate), optical density at 490 nm / % Control (percentage viability of control): MTS on day 4; for % Control (percentage viability of control): relative to Activin A + Wnt3a positive control
Outline: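 A GSK-3B inhibitor library was screened for toxicity to pluripotency-marker-expressing cells. Compound was given in DMEM:F12 with 0.5% FCS and 100 ng/ml Activin A for two days, then replaced by medium with 2% FCS and Activin A. On day 4, MTS absorbance at 490 nm gave viability as percent of Activin A plus Wnt3a control wells.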

[3] = test system: human embryonic stem cells (H9 line); assay: High content screening assay: cell number (proliferative response)
Outline: as §1

[4] = test system: Sox17 expression in human embryonic stem cells (H9 line); assay: High content screening assay: Sox17 protein expression (differentiation); conditions: for fold induction at 10 µM: Homo sapiens, Embryonic stem cell, 10 μM test compound with 100 ng/ml activin A on days 1-2, H9, total intensity by IN Cell Analyzer, strong and moderate hits, read-out: SOX17 Expression, Fold over Wnt 3a/AA control
Outline: as §1

[5] = cell number in the wells analysed for HNF-3b expression
[6] = cell number in the wells analysed for SOX-17 expression

Row | SMILES | HNF-3b Expression Total Intensity [1] | viability at 10 µM [2] | Raw data (duplicate), first replicate [2] | Raw data (duplicate), second replicate [2] | Average [2] | Proliferative Response Total cells [3, 5] | Proliferative Response Total cells [3, 6] | SOX-17 Expression Total Intensity [4] | fold induction at 10 µM [1] | fold induction at 10 µM ([3]; Homo sapiens, Embryonic stem cell, 10 μM test compound with 100 ng/ml activin A on days 1-2, H9, total cell number by IN Cell Analyzer, strong and moderate hits, read-out: Proliferative Response, Fold over Wnt 3a/AA control) | fold induction at 10 µM [4] | Average of raw data (duplicate), optical density at 490 nm ([2]; cmpd conc 2.5 μM) | Average of raw data (duplicate), optical density at 490 nm ([2]; cmpd conc 5 μM) | Average of raw data (duplicate), optical density at 490 nm ([2]; cmpd conc 10 μM) | % Control (percentage viability of control) ([2]; cmpd conc 2.5 μM) | % Control (percentage viability of control) ([2]; cmpd conc 5 μM) | % Control (percentage viability of control) ([2]; cmpd conc 10 μM) | % Control [2]
1 | O=C1NC(=O)C(c2cn(CCCO)c3ncccc23)=C1c1cccs1 [Compound 17, 3-[1-(3-Hydroxypropyl)-1H-pyrrolo[2,3-b]pyridin-3-yl]-4-thiophen-2-yl-1H-pyrrole-2,5-dione] | 14201404 | 99.1% | 0.803 | 0.782 | 0.792 | 83 | 158 | 14786632 | – | – | – | – | – | – | – | – | – | –
2 | O=C1NC(=O)C(c2cn(CCCO)c3ncccc23)=C1c1cnccn1 [Compound 47, 3-[1-(3-Hydroxypropyl)-1H-pyrrolo[2,3-b]pyridin-3-yl]-4-pyrazin-2-yl-1H-pyrrole-2,5-dione] | 560475000 | 104% | – | – | – | 6908 | 10447 | 382680000 | 1.22 | 1.37 | 1.02 | – | – | – | – | – | – | –
3 | O=C1NC(=O)C(c2nn(CCCO)c3ccccc23)=C1c1cn(-c2cccnc2)c2ccc(Cl)cc12 [Compound 52, 3-(5-Chloro-1-pyridin-3-yl-1H-indol-3-yl)-4-[1-(3-hydroxypropyl)-1H-indazol-3-yl]-1H-pyrrole-2,5-dione] | – | 110% | 0.911 | 0.884 | 0.898 | – | – | – | – | – | – | 0.7886 | 0.4156 | 0.1448 | – | – | – | –
4 | CN1CCN(C)CCn2cc(c3ccccc32)C2=C(C(=O)NC2=O)c2cn(c3ccccc23)CC1 [Compound 111, 8,11-Dimethyl-6,7,8,9,10,11,12,13-octahydro-20H-5,23:14,19-di(metheno)dibenzo[k,q]pyrrolo[3,4-n][1,4,7,10]tetraazacyclooctadecine-20,22(21H)-dione] | – | – | 0.821 | 0.841 | 0.831 | – | – | – | – | – | – | 0.8169 | 0.7718 | 0.6709 | 102.9% | 96.1% | 81.0% | 108.0%
5 | CCN1CCOCCOCCn2cc(c3ccccc32)C2=C(C(=O)NC2=O)c2cn(c3ccccc23)CC1 [Compound 103, 14-Ethyl-6,7,9,10,13,14,15,16-octahydro-12H,23H-5,26:17,22-di(metheno)dibenzo[k,q]pyrrolo[3,4-n][1,4,7,10,19]dioxatriacyclohenicosine-23,25(24H)-dione] | – | – | 0.141 | 0.162 | 0.151 | – | – | – | – | – | – | 0.4737 | 0.2618 | 0.1339 | 51.4% | 19.7% | 0.5% | 4.3%
6 | O=C1NC(=O)C(c2cn(CCCO)c3ncccc23)=C1c1ccccc1C(F)(F)F [Compound 16, 3-[1-(3-Hydroxypropyl)-1H-pyrrolo[2,3-b]pyridin-3-yl]-4-[2-(trifluoromethyl)phenyl]-1H-pyrrole-2,5-dione] | – | 73.7% | 0.641 | 0.601 | 0.621 | – | – | – | 1.1 | – | 0.648 | – | – | – | – | – | – | –
7 | O=C1NC(=O)C2=C1c1cn(c3ccccc13)CCOCCOCCN(Cc1cccc3ccccc13)CCn1cc2c2ccccc21 [Compound 136, 14-(Naphthalen-1-ylmethyl)-6,7,9,10,13,14,15,16-octahydro-12H,23H-5,26:17,22-di(metheno)dibenzo[k,q]pyrrolo[3,4-n][1,4,7,10,19]dioxatriazacyclohenicosine-23,25(24H)-dione] | – | – | 0.699 and 0.697 | 0.679 and 0.695 | 0.689 and 0.696 | – | – | – | – | – | – | 0.8432 | 0.7935 | 0.8425 | 99.6% | 92.7% | 99.5% | 86.3% and 87.3%
8 | O=C1NC(=O)C(c2cn(CCOCCOCCO)c3ccccc23)=C1c1cn(CCO)c2ccccc12 [Compound 110, 3-[1-(2-Hydroxyethyl)-1H-indol-3-yl]-4-{1-[2-({2-[(2-hydroxyethyl)oxy]ethyl}oxy)ethyl]-1H-indol-3-yl}-1H-pyrrole-2,5-dione] | – | 112% | 0.948 | 0.764 | 0.856 | – | – | – | – | – | – | 0.8272 | 0.7879 | 0.6747 | – | – | – | –
9 | CN(C)CCCn1c2c(c3ccccc31)C1=C(C(=O)NC1=O)N(c1cccc(Cl)c1)C2 [Compound 101, 4-(3-Chlorophenyl)-6-[3-(dimethylamino)propyl]-5,6-dihydropyrrolo[3′,4′:5,6]pyrido[3,4-b]indole-1,3(2H,4H)-dione] | – | 100% | 0.791 | 0.768 | 0.779 | – | – | – | – | – | – | 0.7987 | 0.7702 | 0.1390 | – | – | – | –
10 | O=C1NC(=O)C2=C1c1cn(c3ccccc13)CCOCCOCCN(Cc1cccs1)CCn1cc2c2ccccc21 [Compound 133, 14-(2-Thienylmethyl)-6,7,9,10,13,14,15,16-octahydro-12H,23H-5,26:17,22-di(metheno)dibenzo[k,q]pyrrolo[3,4-n][1,4,7,10,19]dioxatriazacyclohenicosine-23,25(24H)-dione] | – | – | 0.823 | 0.634 | 0.728 | – | – | – | – | – | – | 0.7939 | 0.6661 | 0.3010 | 92.8% | 75.0% | 24.1% | 98.1%
11 | CN1CCOCCOCCN(C)CCn2cc(c3ccccc32)C2=C(C(=O)NC2=O)c2cn(c3ccccc23)CC1 [Compound 112, 12,21-Dimethyl-11,12,13,14,16,17,20,21,22,23-decahydro-1H,10H,19H-9,4:24,29-di(metheno)dibenzo[k,q]pyrrolo[3,4-n][1,4,7,10,19,22]dioxatetraazacyclotetracosine-1,3(2H)-dione] | – | – | 0.981 | 1.056 | 1.018 | – | – | – | – | – | – | 0.8103 | 0.1283 | 0.1283 | 101.9% | – | – | 145.3%
